Like-named read-outs stand apart in the source and are kept apart here.
Assays:
[1] = tested on: blood cancer cell lines (e.g. HL-60, Jurkat, Raji, Ramos, Daudi, MOLT-4); experiment: Cell based assay, cell viability (CellTiter-Glo), blood cancer cell lines; details: Homo sapiens
Procedure: (§1) Commercially available bladder cancer, prostate cancer, lung cancer, breast cancer, blood cancer, pancreatic cancer, colorectal cancer, brain cancer, neuroblastoma, melanoma, liver cancer, cervical carcinoma, ovarian cancer, renal cancer, and papilloma cell lines were each treated with trypsin-EDTA and cultured, followed by being seeded in each well of a 96 well plate. After 24 hours of treatment at constant temperature, the respective cells were treated with the candidate compound so that a final concentration became 0 to 2 μM. The treated cells were additionally cultured for 72 hours, and cell viability was measured by using an ATP detection method (CellTiter-Glo® Luminescent Cell Viability Assay, Promega).

[2] = tested on: bladder cancer cell lines; experiment: Cell based assay, cell viability (CellTiter-Glo), bladder cancer cell lines
Procedure: as §1

[3] = MV4-11, blood cancer cell line MV-4-11, 72 hours, read-out: IC50, MV-4-11
[4] = blood cancer cell line Daudi, 72 hours, read-out: IC50, Daudi
[5] = blood cancer cell line HL-60, 72 hours, read-out: IC50, HL-60
[6] = blood cancer cell line Jurkat, 72 hours, read-out: IC50, Jurkat
[7] = blood cancer cell line MOLT-4, 72 hours, read-out: IC50, MOLT-4
[8] = blood cancer cell line Raji, 72 hours, read-out: IC50, Raji
[9] = blood cancer cell line Ramos (RA 1), 72 hours, read-out: IC50, Ramos (RA 1)
[10] = blood cancer cell line U-937, 72 hours, read-out: IC50, U-937
[11] = 253J cells, 72 hours treatment, 0 to 2 μM, CellTiter-Glo, read-out: IC50, bladder cancer cell line 253J
[12] = 5637 cells, 72 hours treatment, 0 to 2 μM, CellTiter-Glo, read-out: IC50, bladder cancer cell line 5637
[13] = Homo sapiens, T-24, T24 cells, 72 hours treatment, 0 to 2 μM, CellTiter-Glo, read-out: IC50, bladder cancer cell line T24
[14] = Homo sapiens, UMUC3, UM-UC-3 cells, 72 hours treatment, 0 to 2 μM, CellTiter-Glo, read-out: IC50, bladder cancer cell line UM-UC-3
[15] = Homo sapiens, J82 cells, 72 hours treatment, 0 to 2 μM, CellTiter-Glo, read-out: IC50, bladder cancer cell line J82
[16] = Homo sapiens, KU-19-19 cells, 72 hours treatment, 0 to 2 μM, CellTiter-Glo, read-out: IC50, bladder cancer cell line KU-19-19
[17] = MBT-2 cells, 72 hours treatment, 0 to 2 μM, CellTiter-Glo, read-out: IC50, bladder cancer cell line MBT-2

IC50 [1, 3]	IC50 [1, 4]	IC50 [1, 5]	IC50 [1, 6]	IC50 [1, 7]	IC50 [1, 8]	IC50 [1, 9]	IC50 [1, 10]	IC50 [2, 11]	IC50 [2, 12]	IC50 [2, 13]	IC50 [2, 14]	IC50 [2, 15]	IC50 [2, 16]	IC50 [2, 17]	IC50 ([2]; 253J cells, 72 hours, cell viability (CellTiter-Glo), read-out: IC50, 253J bladder cancer cell line)	IC50 ([2]; 5637 cells, 72 hours, cell viability (CellTiter-Glo), read-out: IC50, 5637 bladder cancer cell line)	IC50 ([2]; Homo sapiens, T-24, T24 cells, 72 hours, cell viability (CellTiter-Glo), read-out: IC50, T24 bladder cancer cell line)	IC50 ([2]; Homo sapiens, J82 cells, 72 hours, cell viability (CellTiter-Glo), read-out: IC50, J82 bladder cancer cell line)	Structure (SMILES)
> 2000 nM	> 2000 nM	> 2000 nM	> 2000 nM	> 2000 nM	> 2000 nM	> 2000 nM	> 2000 nM	> 2000 nM	> 2000 nM	> 2000 nM	> 2000 nM	> 2000 nM	> 2000 nM	> 2000 nM					CC(=O)c1c([S+](C)[O-])n(C(C)=O)c2c(Br)ccc(Cl)c2c1=O (centres unmarked) [Compound 19, 1,1′-(8-bromo-5-chloro-2-(methylsulfinyl)-4-oxoquinoline-1,3(4H)-diyl)bis(ethan-1-one)]
> 2000 nM	> 2000 nM	> 2000 nM	> 2000 nM	> 2000 nM	> 2000 nM	> 2000 nM	> 2000 nM	> 2000 nM	> 2000 nM	> 2000 nM	> 2000 nM	> 2000 nM	> 2000 nM	> 2000 nM					CC(=O)c1c(SCc2ccccc2)[nH]c2c(Br)ccc(Cl)c2c1=O [Compound 3, 3-acetyl-2-(benzylthio)-8-bromo-5-chloroquinolin-4(1H)-one]
> 2000 nM	> 2000 nM	> 2000 nM	> 2000 nM	> 2000 nM	> 2000 nM	> 2000 nM	> 2000 nM	> 2000 nM	> 2000 nM	> 2000 nM		> 2000 nM							CC(=O)c1c([S+]([O-])Cc2cc(C)on2)[nH]c2c(F)ccc(F)c2c1=O (centres unmarked) [Compound 82, 3-acetyl-5,8-difluoro-2-(((5-methylisoxazol-3-yl)methyl)sulfinyl)quinolin-4(1H)-one]
> 2000 nM	> 2000 nM	> 2000 nM	1730 nM	> 2000 nM	> 2000 nM	> 2000 nM	> 2000 nM	> 2000 nM	> 2000 nM	> 2000 nM		> 2000 nM							COC(=O)c1ccc(C[S+]([O-])c2[nH]c3c(Cl)ccc(Cl)c3c(=O)c2C(C)=O)cc1 (centres unmarked) [Compound 91, methyl 4-(((3-acetyl-5,8-dichloro-4-oxo-1,4-dihydroquinolin-2-yl)sulfinyl)methyl)benzoate]
1010 nM	1020 nM	1870 nM	> 2000 nM	940 nM	1400 nM	980 nM	> 2000 nM		> 2000 nM	1030 nM		> 2000 nM							CC(=O)c1c([S+]([O-])Cc2ccc(C(F)(F)F)nc2C)[nH]c2c(Br)ccc(Cl)c2c1=O (centres unmarked) [Compound 102, 3-acetyl-8-bromo-5-chloro-2-(((2-methyl-6-(trifluoromethyl)pyridin-3-yl)methyl)sulfinyl)quinolin-4(1H)-one]
> 2000 nM	> 2000 nM	> 2000 nM	> 2000 nM	> 2000 nM	> 2000 nM	> 2000 nM	> 2000 nM	> 2000 nM	> 2000 nM	> 2000 nM	> 2000 nM	> 2000 nM	> 2000 nM	> 2000 nM					CC(=O)c1c(SC(C)C)[nH]c2c(Br)ccc(Cl)c2c1=O [Compound 24, 3-acetyl-8-bromo-5-chloro-2-(isopropylthio)quinolin-4(1H)-one]
> 2000 nM	> 2000 nM	> 2000 nM	> 2000 nM	> 2000 nM	> 2000 nM	> 2000 nM	> 2000 nM	> 2000 nM	> 2000 nM	> 2000 nM		> 2000 nM		> 2000 nM					CC(=O)c1c(S(=O)(=O)Cc2ccccc2)nc2c(Br)ccc(Cl)c2c1O [Compound 54, 1-(2-(benzylsulfonyl)-8-bromo-5-chloro-4-hydroxyquinolin-3-yl)ethan-1-one]
> 2000 nM	> 2000 nM	> 2000 nM	> 2000 nM	> 2000 nM	> 2000 nM	> 2000 nM	> 2000 nM	> 2000 nM	> 2000 nM	> 2000 nM	> 2000 nM	> 2000 nM	> 2000 nM	> 2000 nM					CCS(=O)(=O)n1c([S+](C)[O-])c(C(C)=O)c(=O)c2c(Cl)ccc(Br)c21 (centres unmarked) [Compound 39, 3-acetyl-8-bromo-5-chloro-1-(ethylsulfonyl)-2-(methylsulfinyl)quinolin-4(1H)-one]
1070 nM	1940 nM	1060 nM	880 nM	1180 nM	870 nM	1490 nM	870 nM		1030 nM	820 nM		1330 nM							CC(=O)c1c([S+]([O-])Cc2cccc(C#N)c2)[nH]c2c(Br)ccc(Cl)c2c1=O (centres unmarked) [Compound 28, 3-(((3-acetyl-8-bromo-5-chloro-4-oxo-1,4-dihydroquinolin-2-yl)sulfinyl)methyl)benzonitrile]
> 2000 nM	> 2000 nM	> 2000 nM	> 2000 nM	> 2000 nM	> 2000 nM	> 2000 nM	> 2000 nM	> 2000 nM	> 2000 nM	> 2000 nM		> 2000 nM							Cc1cc(C[S+]([O-])c2[nH]c3c(Cl)ccc(Cl)c3c(=O)c2C(=O)c2ccccc2)no1 (centres unmarked) [Compound 88, 3-benzoyl-5,8-dichloro-2-(((5-methylisoxazol-3-yl)methyl)sulfinyl)quinolin-4(1H)-one]
> 2000 nM	> 2000 nM	> 2000 nM	> 2000 nM	> 2000 nM	> 2000 nM	> 2000 nM	> 2000 nM	> 2000 nM	> 2000 nM	> 2000 nM	> 2000 nM	> 2000 nM	> 2000 nM	1280 nM					CC(=O)c1c([S+](C)[O-])n(S(=O)(=O)C(F)(F)F)c2c(Br)ccc(Cl)c2c1=O (centres unmarked) [Compound 36, 3-acetyl-8-bromo-5-chloro-2-(methylsulfinyl)-1-((trifluoromethyl)sulfonyl)quinolin-4(1H)-one]
> 2000 nM	> 2000 nM	> 2000 nM	> 2000 nM	> 2000 nM	> 2000 nM	> 2000 nM	> 2000 nM	> 2000 nM	> 2000 nM	> 2000 nM	> 2000 nM	> 2000 nM	> 2000 nM	> 2000 nM					CC(=O)c1c(SCc2cccc(I)c2)[nH]c2c(Br)ccc(Cl)c2c1=O [Compound 47, 3-acetyl-8-bromo-5-chloro-2-((3-iodobenzyl)thio)quinolin-4(1H)-one]
> 2000 nM	> 2000 nM	> 2000 nM	> 2000 nM	> 2000 nM	> 2000 nM	> 2000 nM	> 2000 nM	> 2000 nM	> 2000 nM	> 2000 nM	> 2000 nM	> 2000 nM	> 2000 nM	> 2000 nM					CC(=O)c1c(SCc2ccccc2)n(C(=O)c2ccc(Br)cc2)c2c(Br)ccc(Cl)c2c1=O [Compound 23, 3-acetyl-2-(benzylthio)-8-bromo-1-(4-bromobenzoyl)-5-chloroquinolin-4(1H)-one]
> 2000 nM	> 2000 nM	> 2000 nM	> 2000 nM	> 2000 nM	> 2000 nM	> 2000 nM	> 2000 nM								> 2000 nM	> 2000 nM	> 2000 nM	> 2000 nM	CC(=O)c1c([S+]([O-])Cc2cnc3[nH]ccc3c2)[nH]c2c(Br)ccc(Cl)c2c1=O (centres unmarked) [Compound 107, 2-(((1H-pyrrolo[2,3-b]pyridin-5-yl)methyl)sulfinyl)-3-acetyl-8-bromo-5-chloroquinolin-4(1H)-one]
> 2000 nM	> 2000 nM	> 2000 nM	> 2000 nM	> 2000 nM	> 2000 nM	> 2000 nM	> 2000 nM	> 2000 nM	> 2000 nM	> 2000 nM	> 2000 nM	> 2000 nM	> 2000 nM	> 2000 nM					CSc1c(C(C)=O)c(=O)c2c(Cl)ccc(Br)c2n1S(=O)(=O)c1ccc(Cl)cc1 [Compound 37, 3-acetyl-8-bromo-5-chloro-1-((4-chlorophenyl)sulfonyl)-2-(methylthio)quinolin-4(1H)-one]
> 2000 nM	1420 nM	> 2000 nM	1120 nM	1350 nM	1330 nM	> 2000 nM	> 2000 nM	900 nM	1680 nM	1510 nM		1620 nM							CC(=O)c1c([S+]([O-])Cc2cccc(S(F)(F)(F)(F)F)c2)[nH]c2c(Br)ccc(Cl)c2c1=O (centres unmarked) [Compound 77, 3-acetyl-8-bromo-5-chloro-2-((3-(pentafluoro--sulfanyl)benzyl)sulfinyl)quinolin-4(1H)-one]
1380 nM	> 2000 nM	> 2000 nM	> 2000 nM	> 2000 nM	> 2000 nM	> 2000 nM	> 2000 nM	> 2000 nM	> 2000 nM	> 2000 nM		> 2000 nM							COc1cccc2[nH]c([S+]([O-])Cc3cc(C)on3)c(C(C)=O)c(=O)c12 (centres unmarked) [Compound 94, 3-acetyl-5-methoxy-2-(((5-methylisoxazol-3-yl)methyl)sulfinyl)quinolin-4(1H)-one]

Structure (SMILES)	IC50 [1, 3]	IC50 [1, 4]	IC50 [1, 5]	IC50 [1, 6]	IC50 [1, 7]	IC50 [1, 8]	IC50 [1, 9]	IC50 [1, 10]	IC50 [2, 11]	IC50 [2, 12]	IC50 [2, 13]	IC50 [2, 14]	IC50 [2, 15]	IC50 [2, 16]	IC50 [2, 17]	IC50 ([2]; 253J cells, 72 hours, cell viability (CellTiter-Glo), read-out: IC50, 253J bladder cancer cell line)	IC50 ([2]; 5637 cells, 72 hours, cell viability (CellTiter-Glo), read-out: IC50, 5637 bladder cancer cell line)	IC50 ([2]; Homo sapiens, T-24, T24 cells, 72 hours, cell viability (CellTiter-Glo), read-out: IC50, T24 bladder cancer cell line)	IC50 ([2]; Homo sapiens, J82 cells, 72 hours, cell viability (CellTiter-Glo), read-out: IC50, J82 bladder cancer cell line)
CC(=O)c1c([S+]([O-])Cc2ccccc2)nc2c(Br)ccc(Cl)c2c1O (centres unmarked) [Compound 53, 1-(2-(benzylsulfinyl)-8-bromo-5-chloro-4-hydroxyquinolin-3-yl)ethan-1-one]	> 2000 nM	> 2000 nM	> 2000 nM	> 2000 nM	> 2000 nM	> 2000 nM	> 2000 nM	> 2000 nM	> 2000 nM	> 2000 nM	> 2000 nM		> 2000 nM						

Source: US11464770B2, “Anticancer pharmaceutical composition” (NATIONAL CANCER CENTER, priority 2016, dated 2022)
